Tests used:
PAM2035 = assay: Tigemonam potentiation assay (MPC@4), class C and D; assay type: cell-based, Pseudomonas aeruginosa
Description: (§1) Selected β-lactamase inhibitors were also tested for their ability to potentiate the monobactam tigemonam.

KPX1001 OXA-2 = assay type: cell-based
Description: as §1

EC1010 CMY-6 = assay: Tigemonam potentiation assay (MPC@4), class C and D; assay type: cell-based, Escherichia coli; details: EC1010 CMY-6 class C
Description: as §1

ECL1002 = assay: as above; assay type: cell-based, Enterobacter cloacae
Description: as §1

KP1007 OXA-10 = assay type: cell-based, Klebsiella pneumoniae
Description: as §1

CC1(C)[C@H](NC(=O)/C(=N\OCC(=O)O)c2csc(N)n2)C(=O)N1OS(=O)(=O)O [Tigemonam]
Tigemonam MIC (PAM2035): 8 µg/mL
Tigemonam MIC (KPX1001 OXA-2): 8 µg/mL
Tigemonam MIC (EC1010 CMY-6): 16 µg/mL
Tigemonam MIC (ECL1002): 32 µg/mL
Tigemonam MIC (KP1007 OXA-10): 256 µg/mL

Reference: patent US11090319B2, “Therapeutic uses of pharmaceutical compositions comprising cyclic boronic acid ester derivatives” (Melinta Subsidiary Corp., priority 2010, dated 2021)
